Patent US12018267B2, “Plants having increased tolerance to herbicides” (BASF SE, priority 2015, dated 2024)

Tests used:
[1] = system: transgenic Arabidopsis plants with wildtype or mutated cellulose synthase sequences (SEQ ID NO: 1 or 3); experiment: 48-well plate growth inhibition of transgenic T2 Arabidopsis, relative tolerance rates versus non-transgenic (Table E2-1); format: in vivo, Arabidopsis thaliana; conditions: growth inhibition evaluated seven to ten days after seeding
From the text: For transformation of Arabidopsis thaliana, wildtype or mutated cellulose synthase sequences encoding for one of the following protein sequences SEQ ID NO: 1 or 3, are cloned with standard cloning techniques as described in Sambrook et al. (Molecular cloning (2001) Cold Spring Harbor Laboratory Press) in a binary vector containing resistance marker gene cassette (AHAS) and mutated cellulose synthase sequence (marked as GOI) in between ubiquitin promoter (PcUbi) and nopaline synthase terminator (NOS) sequence. Binary plasmids are introduced to Agrobacterium tumefaciens for plant transformation. Arabidopsis thaliana are transformed with wildtype or mutated cellulose synthase sequences by floral dip method as described by McElver and Singh (WO 2008/124495). Transgenic Arabidopsis plants are subjected to TaqMan analysis for analysis of the number of integration loci.
Transgenic Arabidopsis thaliana plants (T2) are assayed for improved tolerance to azine herbicides like e. g. 6-cyclopentyl-N4-(2,3,4,5,6-pentafluorophenyl)-1,3,5-triazine-2,4-diamine in 48-well plates. Therefore, T2 seeds are surface sterilized by stirring for 5 min in ethanol+water (70+30 by volume), rinsing one time with ethanol+water (70+30 by volume) and two times with sterile, deionized water. The seeds are resuspended in 0.1% agar dissolved in water (w/v) Four to five seeds per well are plated on solid nutrient medium consisting of half-strength murashige skoog nutrient solution, pH 5.8 (Murashige and Skoog (1962) Physiologia Plantarum 15: 473-497). Compounds are dissolved in dimethylsulfoxid (DMSO) and added to the medium prior solidification (final DMSO concentration 0.1%). Multi well plates are incubated in a growth chamber at 22° C., 75% relative humidity and 110 μmol Phot*m^−2*s^−1 with 14:10 h light:dark photoperiod. Growth inhibition is evaluated seven to ten days after seeding in comparison to wild type plants. Tolerance factors are calculated based on IC50 values of growth inhibition of transformed versus non-transformed Arabidopsis plants.

[2] = system: O. sativa Volano-M3-CESA1 and CESA3 mutants; experiment: Greenhouse foliar application, crop injury on tilled Rice M3 generation cellulose synthase mutants (Table E10-1); format: in vivo, Oryza sativa; conditions: foliar application 250 g ai/ha
From the text: Oryza sativa M2 Volano is a cellulose biosynthesis inhibitor susceptible rice risotto population that was subjected to sodium azide seed mutagenesis but was not tilled nor selected for CESA mutations. O. sativa Volano-M3-CESA1 and CESA3 mutants were selected from a subpopulation of O. sativa M2 Volano by sequencing CESA gene sequences in M2 plants and maintaining (producing seed through selfing) those individuals containing key mutations in these genes. The tolerance of the M3 CESA1 and CESA3 mutants was assessed using 6-(1-fluorocyclopentyl)-N2-(2,3,5,6-tetrafluorophenyl)-1,3,5-triazine-2,4-diamine, together with 1.0% DASH® EC adjuvant (BASF). The tolerance of M4 CESA1 and CESA3 mutants was assessed using 6-cyclopentyl-N4-(2,3,4,5,6-pentafluorophenyl)-1,3,5-triazine-2,4-diamine, together with 1.0% DASH® EC adjuvant (BASF).
M3 seed, which were harvested from tilled and selected individuals containing mutations in the CESA1 and CESA3 genes, were grown in the greenhouse under natural light conditions supplemented with 400 W sodium halide lamps under a 16 hr day length. Day/night temperatures were 26 and 20° C., respectively. The number of M3 plants from each line varied between 2 and 16, depending on seed availability and germination. A non-selective CBI, azine 6-(1-fluorocyclopentyl)-N2-(2,3,5,6-tetrafluorophenyl)-1,3,5-triazine-2,4-diamine, formulated with 1.0% DASH in a water volume of 375 L/ha was applied early post-emergent (one to two leaf stage) at a rate of 250 g ai/ha to M3 CESA1 and CESA3 mutant rice plants growing in soil in the greenhouse. Only plants originating from lines having more than four seeds were subjected to herbicide treatment. CESA mutant lines with four or fewer seeds were selfed for an additional generation and then tested at the M4 generation with 6-cyclopentyl-N4-(2,3,4,5,6-pentafluorophenyl)-1,3,5-triazine-2,4-diamine. M4 plants were grown under similar conditions as M3 plants and treated with 250 g ai/ha or 500 g ai/ha of 6-cyclopentyl-N4-(2,3,4,5,6-pentafluorophenyl)-1,3,5-triazine-2,4-diamine. […] Plants without any symptoms were recorded as “0%” injury. Increasing levels of reduced leaf mass and reduced stalk stiffness, with respect to the untreated control plants, were recorded in the range of “1 to 49%” injury. Increasing levels of leaf abnormalities and leaf necrosis, along with increased levels of lodging, relative to the untreated control plants, were recorded in the range of “50 to 85%” injury. Dead or dying plants with necrosis of the apex and severe lodging were recorded between “86-100%”. Data on individual plants was assessed and recorded due to the low number of individuals per line and the fact that the CESA mutations in the M2 generation were heterozygous and therefore segregating at the M3 and M4 generations. […]

Row | SMILES | Relative tolerance rate of transgenic Arabidopsis plants as compared to non-transgenic (non-transgenic = 1.0) ([1]; Construct AtCesA1_G1031R, SEQ ID 1, variant G1031R) | Relative tolerance rate of transgenic Arabidopsis plants as compared to non-transgenic (non-transgenic = 1.0) ([1]; Construct AtCesA1_L1011A, SEQ ID 1, variant L1011A) | Relative tolerance rate of transgenic Arabidopsis plants as compared to non-transgenic (non-transgenic = 1.0) ([1]; Construct AtCesA1_R292H, SEQ ID 1, variant R292H) | Relative tolerance rate of transgenic Arabidopsis plants as compared to non-transgenic (non-transgenic = 1.0) ([1]; Construct AtCesA1_V297M, SEQ ID 1, variant V297M) | Relative tolerance rate of transgenic Arabidopsis plants as compared to non-transgenic (non-transgenic = 1.0) ([1]; Construct AtCesA1_wt, SEQ ID 1, no variant) | Relative tolerance rate of transgenic Arabidopsis plants as compared to non-transgenic (non-transgenic = 1.0) ([1]; Construct AtCesA3_F1039L, SEQ ID 3, variant F1039L) | Relative tolerance rate of transgenic Arabidopsis plants as compared to non-transgenic (non-transgenic = 1.0) ([1]; Construct AtCesA3_wt, SEQ ID 3, no variant) | Crop Injury Assessment (%) at 20 DAT ([2]; Rice M3 OsCESA1 A1066T (SEQ ID 51), parental plant Het) | Crop Injury Assessment (%) at 20 DAT ([2]; Rice M3 OsCESA1 S827N (SEQ ID 51), parental plant Het) | Crop Injury Assessment (%) at 20 DAT ([2]; Rice M3 OsCESA1 V9231 (SEQ ID 51), parental plant Het) | Crop Injury Assessment (%) at 20 DAT ([2]; Rice M3 OsCESA3 V1022L (SEQ ID 55), parental plant Hom)
1 | Nc1nc(Nc2c(F)c(F)c(F)c(F)c2F)nc(C2CCCC2)n1 [6-cyclopentyl-N4-(2,3,4,5,6-pentafluorophenyl)-1,3,5-triazine-2,4-diamine] | 7 | 3 | 3 | 1 | 1 | 3 | 1 | – | – | – | –
2 | Nc1nc(Nc2c(F)c(F)cc(F)c2F)nc(C2(F)CCCC2)n1 [6-(1-fluorocyclopentyl)-N2-(2,3,5,6-tetrafluorophenyl)-1,3,5-triazine-2,4-diamine] | – | – | – | – | – | – | – | 10% | 0% | 0% | 20%
